Test results from patent publication US4614746A, “5-fluorobenzonitrile derivatives for increasing the lean meat to fat ratio and/or enhancing the growth rate of warm-blooded animals” (American Cyanamid Company, priority 1985, dated 1986).

Key:
wether lambs = experiment: Evaluation in wether lambs (growth, feed efficiency, muscle, fat, carcass), eight weeks; type: in vivo; conditions: for ADG (Average daily gain): eight weeks; for Subcutaneous Fat Depth Over Loin / Muscle Cross-Sectional Area: 12th rib; for Muscle Cross-Sectional Area: longissimus dorsi
From the text: Evaluation of 3-[2-(tert-butylamino)1-hydroxyethyl]-5-fluorobenzonitrile for growth enhancement, feed efficiency improvement, increased deposition of muscle tissue and/or protein and improvement in carcass composition
To determine the effect of feeding experimental compounds to ruminants, wether lambs are randomly allotted to pens in groups of five. Three replications per treatment are used. The lambs are weighed and permitted feed and water ad libitum. The feed is weighed daily, and uneaten feed from the previous day is collected and weighed. Test lambs receive the same diet as control animals, but with the addition of experimental compound at a concentration of from 5 ppm to 20 ppm. The tests are conducted for a period of eight weeks at the end of which the lambs are again weighed, and the feed consumed calculated. The lambs are then necropsied. Eight animals per treatment are dressed, and the average cross-sectional area of the longissimus dorsi and depth of subcutaneous fat measured at the 12th rib.

CFI female mice = experiment: Antilipogenic evaluation of test compounds - mouse study (Example 6, procedure of Example 4); type: in vivo; conditions: versus related analogues
Experimental: CFI female mice from Carworth Farms are received when they are six-weeks old. They are housed ten to a cage in air-conditioned rooms (22° C. to 25° C.) with automatically-controlled lights, 14 hours on and ten hours off. The basal diet used in these studies is Purina Laboratory Chow (see description below) which is supplied ad libitum.
Thirteen days after arrival, the mice are weighed in groups of ten and assigned at random to the different treatments. Each of the treatments is tested in three replicates, i.e., in three cages of ten mice each. There are ten cages of ten control mice each. Drugs are mixed in the diet at the dosage level indicated. Feed and water are offered ad libitum for a 12-day test period. Feed spilled is collected during the test period. At the end of the test period, the collected feed is weighed, and the mean feed consumption per cage of ten mice is determined for each treatment. The mice are weighed as a group of ten, and the weight gain determined. The mice are sacrificed by cervical dislocation. The right uterine fat pad of each mouse is removed. The fat pads for each cage of ten mice are weighed as a unit. Reduction in fat pad weights of animals is generally indicative of a reduction of total body fat of the treated animals.
Following the procedure of Example 4, the analogues of the compounds of the invention in the subject Application are evaluated as antilipogenic agents.

[1] = tested on: Hubbard X Hubbard Crossbred Chicks; experiment: Evaluation as feed additive in poultry (growth rate, feed utilization, carcass yield), seven weeks; type: in vivo; conditions: for Gain: seven weeks; for FE (Feed efficiency): feed/gain ratio; for FE, Percent (±) Control: percent improvement
From the text: Evaluation of 3-[2-(tert-butylamino)-1-hydroxyethyl]-5-fluorobenzonitrile as an animal feed additive for (1) the enhancement of the growth rate of poultry, (2) improvement in feed utilization thereby, (3) increase in the deposition of muscle tissue or protein in said birds and (4) improvement in the carcass quality of treated birds
One-day old Hubbard X Hubbard Crossbred Chicks, randomly allotted to pens of ten chicks (five males and five females) each.
Eight pens of chicks are used for unmedicated controls, and six pens of chicks are used at each level of drug. The duration of the experiment is seven weeks.
The controls are offered an unmedicated diet of Broiler Ration No. 453 (composition given below) and water ad libitum. Medicated chicks are offered the same diet containing the test drug at the levels indicated above, and water ad libitum. The weight of the chicks is determined at the beginning and on completion of the experiments. Weight gains and the amount of feed consumed are also determined. In addition, ten males and ten females from each group are randomly selected and sacrificed by decapitation. These birds were bled, the feathers, feet, and viscera removed, and the resulting carcass weighed.
The thus-obtained data are averaged and summarized in Table IV below, wherein the percent improvement in weight gains and feed/gain ratios are given.

[2] = in words; cited from earlier work
[3] = target: T1, beta-1 adrenergic receptor (Meleagris gallopavo, UniProt P07700); experiment: Beta-1 adrenergic activity, (H3) dihydroalprenolol radioligand binding to erythrocyte membranes; design: species or system turkey and rat; conditions: (H3) DHA, room temperature (23° C.), one hour; read-out: β1 K-50 (concentration required to displace 50% radioactive ligand from binding sites of beta adrenergic receptors)
T1 construct: Beta-1 adrenergic receptor membranes are isolated from turkey and rat erythrocytes; from tissue; host or cells: erythrocyte membranes from freshly drawn turkey blood (rat blood also given)
Experimental: Beta-1 adrenergic activity of experimental compounds is identified by radioactive ligand-binding studies by using beta adrenergic receptor membranes and adrenergic antagonist (H3) dihydroalprenolol (DHA). Binding of (H3) DHA to membrane fractions is assayed by filtration on glass fiber filters. Specific binding is defined as total radioactivity bound minus nonspecific bound radioactivity, i.e., binding in the presence of 100 μM nonradioactive DHA. Results are expressed as the concentrations of the compound required to displace 50% radioactive ligand from binding of beta adrenergic receptors (K-50).
In these tests, beta adrenergic receptor membranes are incubated with radioactive dihydroalprenolol (H3 DHA) and experimental compounds. The bound radio-ligand is separated by filtration on glass fiber filters and counted by scintillation counter.
Radioactive ligand, H3 dihydroalprenolol (DHA) and aquasol are purchased from New England Nuclear Corporation, DMSO is supplied by J. T. Baker Company, and all other chemicals are obtained from Sigma Chemical Company.
Beta-1 adrenergic receptor membranes are isolated from turkey and rat erythrocytes respectively using the procedures of:
Freshly drawn heparinized whole blood from turkeys and rats is centrifuged for five minutes (4×500 g). The plasma is withdrawn; the remaining erythrocytes are suspended in 150 mM sodium chloride solutions and centrifuged. The cells are resuspended and centrifuged twice more. The cells are hemolyzed in 10 volume of cold distilled water containing 2 mM dithiothreitol, 100 μM phenylmethyl sulfonyl fluoride, 5 μg/mL leupeptin, 200 μg/mL bacitacin, 0.1% bovine serum albumin, and 10 units/mL aprotonin, and centrifuged at 3000×g for five minutes. The bottom gelatin layer is discarded. The top layer is suspended and centrifuged five times at 3000×g and resuspended in tris buffer (145 mM NaCl, 1 mM ethylene glycol-bis(β-aminoethyl ether) N,N,N,N, tetraacetic acid, 2 mM MgCl2, 10 mM tris, and 10% glycerol, pH 7.4). The resuspended membranes are further purified with differential centrifugation by using sucrose albumin cushion, and subsequently stored in small aliquots at -70° C. The protein concentration of receptor membranes is determined by the biuret method.
To duplicate incubation, tubes are added 200 μl suspended membranes (200 μg protein), 25 μl of compound in solution or buffer and 25 μl (H3) dihydroalprenolol (200,000 CPM). Tubes were incubated at room temperature (23° C.) for an hour and then filtered rapidly under vacuum through Whatman GF/B filters. The filters are rinsed three times with 5 mL of cold buffer (145 mM NaCl, 1 mM ethylenediaminetetraacetic acid, and 10 mM tris, pH 7.4) and subsequently counted by liquid scintillation counter in 10 mL of aquasol. Specific binding of H3 DHA is defined as the excess over blank containing 100 μM nonradioactive DHA. Six serial dilutions of each compound are tested.
Beta adrenergic activity is inversely related to K-50 (the concentrations of the compound required to displace 50% radioactive ligand from binding sites of beta adrenergic receptors, i.e., 50% binding) value.

T1 sequence (P07700 whole entry): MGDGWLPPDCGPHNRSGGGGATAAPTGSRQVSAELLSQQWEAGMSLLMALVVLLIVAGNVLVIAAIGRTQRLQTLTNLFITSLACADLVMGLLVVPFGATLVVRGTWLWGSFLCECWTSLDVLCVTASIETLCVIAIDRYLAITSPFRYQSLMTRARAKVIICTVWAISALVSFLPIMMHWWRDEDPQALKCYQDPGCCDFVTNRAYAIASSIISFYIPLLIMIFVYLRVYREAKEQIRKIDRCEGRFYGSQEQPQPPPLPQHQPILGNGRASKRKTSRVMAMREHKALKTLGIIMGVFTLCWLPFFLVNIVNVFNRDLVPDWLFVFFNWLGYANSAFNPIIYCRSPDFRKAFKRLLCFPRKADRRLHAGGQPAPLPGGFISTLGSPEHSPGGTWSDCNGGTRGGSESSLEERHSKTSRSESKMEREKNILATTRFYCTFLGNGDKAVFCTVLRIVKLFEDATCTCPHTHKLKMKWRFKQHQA

## CC(C)(C)NCC(O)c1cc(F)cc(C#N)c1 (stereo not shown) [3-[2-(tert-Butylamino)-1-hydroxyethyl]-5-fluorobenzonitrile]
Wether lambs; 5 ppm in diet
  AD Feed Consumed (Average daily feed consumed): 1.43 kg/day
  AD Feed Consumed, Percent (±) Control: +2.9%
  ADG, Percent (±) Control: +11.3%
  Carcass Yield: 51.80% of live weight
  Carcass Yield, Percent (±) Control: +1.8%
  FE (Feed efficiency): 6.36
  FE, Percent (±) Control: +7.0%
  Muscle Cross-Sectional Area, Percent (±) Control: +6.8%
  Subcutaneous Fat Depth Over Loin, Percent (±) Control: +23.8%
  ADG (Average daily gain): 226 g
  Subcutaneous Fat Depth Over Loin: 3.2 cm
  Muscle Cross-Sectional Area: 17.69 cm^2
Wether lambs; 10 ppm in diet
  AD Feed Consumed (Average daily feed consumed): 1.50 kg/day
  AD Feed Consumed, Percent (±) Control: +7.9%
  ADG, Percent (±) Control: +24.6%
  Carcass Yield: 51.52% of live weight
  Carcass Yield, Percent (±) Control: +1.3%
  FE (Feed efficiency): 5.91
  FE, Percent (±) Control: +13.6%
  Muscle Cross-Sectional Area, Percent (±) Control: +11.4%
  Subcutaneous Fat Depth Over Loin, Percent (±) Control: +35.7%
  ADG (Average daily gain): 253 g
  Subcutaneous Fat Depth Over Loin: 2.7 cm
  Muscle Cross-Sectional Area: 18.44 cm^2
Wether lambs; 20 ppm in diet
  AD Feed Consumed (Average daily feed consumed): 1.39 kg/day
  AD Feed Consumed, Percent (±) Control: +0.0%
  ADG, Percent (±) Control: +15.3%
  Carcass Yield: 54.15% of live weight
  Carcass Yield, Percent (±) Control: +6.5%
  FE (Feed efficiency): 5.92
  FE, Percent (±) Control: +13.5%
  Muscle Cross-Sectional Area, Percent (±) Control: +24.2%
  Subcutaneous Fat Depth Over Loin, Percent (±) Control: +57.1%
  ADG (Average daily gain): 234 g
  Subcutaneous Fat Depth Over Loin: 1.8 cm
  Muscle Cross-Sectional Area: 20.56 cm^2
CFI female mice
  effectiveness as an antilipogenic agent: markedly more effective as an antilipogenic agent than its related aanalogues
[1]; 0.25 ppm in diet
  Carcass Yield: 69.46% of live weight
  Carcass Yield, Percent (±) Control: +1.0%
  Feed Consumed: 2.576 kg
  Feed Consumed, Percent (±) Control: +0.4%
  Gain, Percent (±) Control: +2.5%
  Gain: 1.105 kg
  FE (Feed efficiency): 2.333
  FE, Percent (±) Control: +2.1%
[1]; 0.5 ppm in diet
  Carcass Yield: 68.73% of live weight
  Carcass Yield, Percent (±) Control: 0.0%
  Feed Consumed: 2.571 kg
  Feed Consumed, Percent (±) Control: +0.2%
  Gain, Percent (±) Control: +5.0%
  Gain: 1.132 kg
  FE (Feed efficiency): 2.274
  FE, Percent (±) Control: +4.6%
[1]; 1 ppm in diet
  Carcass Yield: 69.66% of live weight
  Carcass Yield, Percent (±) Control: +1.3%
  Feed Consumed: 2.573 kg
  Feed Consumed, Percent (±) Control: +0.2%
  Gain, Percent (±) Control: +1.9%
  Gain: 1.097 kg
  FE (Feed efficiency): 2.350
  FE, Percent (±) Control: +1.4%
[1]; 2 ppm in diet
  Carcass Yield: 69.30% of live weight
  Carcass Yield, Percent (±) Control: +0.8%
  Feed Consumed: 2.578 kg
  Feed Consumed, Percent (±) Control: +0.4%
  Gain, Percent (±) Control: +3.3%
  Gain: 1.114 kg
  FE (Feed efficiency): 2.315
  FE, Percent (±) Control: +3.0%

## CC(C)(C)NCC(O)c1cc(Cl)c(N)c(Cl)c1 (stereo not shown) [Clenbuterol]
[2]
  bronchodilator activity: very effective bronchodilator
  heart stimulant activity: potent heart

## CCCC(C)NCC(O)c1cc(F)cc(C#N)c1 (stereo not shown) [drawing 19]
[3]
  IC50: 2.2 µM

## CC(C)N(CC(O)c1cc(F)cc(C#N)c1)C(C)C (stereo not shown) [drawing 20]
[3]
  IC50: 2.95 µM

## CCNCC(O)c1cc(F)cc(C#N)c1 (stereo not shown) [drawing 21]
[3]
  IC50: 3.04 µM

## CC(C)NCC(O)c1cc(F)cc(C#N)c1 (stereo not shown) [drawing 22]
[3]
  IC50: 12.3 µM

## CC(C)(C)NCC(O)c1cc(F)cc(C#N)c1 (stereo not shown) [drawing 23]
[3]
  IC50: 16.6 µM
